In patent US20070128303A1, “Anti-inflammatory, cytoprotective factor derivable from a probiotic organism” (THE UNIVERSITY OF CHICAGO, priority 2004, published 2007):
Starred links: 1 amine or outer side, 2 acyl side, 3 side chain; linkers in the order of their positions; H or OH if unused. Positions of bridges follow the written chain, without caps; N, C: chain ends. Non-standard residues stand in square brackets, D forms with d. Residues, ends and D or L forms follow the SMILES beside them. *: point of attachment. Trp(2-yl) = O=C([C@H](Cc1c([*:3])[nH]c2ccccc12)N[*:1])[*:2]; Leu(4R-OH,5-OH) = C[C@](O)(CO)C[C@H](N)C(=O)O; cisHyp = O=C(O)[C@@H]1C[C@H](O)CN1; Cbz = O=C(OCc1ccccc1)*

Key:
F/G actin = F/G actin assay, YAMC cells under oxidant stress; assay type: cell-based, mouse; conditions: phalloidin 30 μg/ml 2 hours; cytochalasin D 10 μg/ml 15 min
Description: F/G actin assays were conducted by initially shifting confluent YAMC cell monolayers to 37° C. in IFN-γ-free medium and treating with VSL#3-CM overnight. Prior to assessment, cells were treated with phalloidin (30 μg/ml for 2 hours; Molecular probes, Eugene, Oreg.), cytochalasin D (10 μg/ml for 15 min), or the oxidant monochloramine (0.6 mM for 30 minutes). Cells were rinsed in PBS, harvested, centrifuged (14,000×g for 20 seconds at room temperature) and the pellets resuspended in 200 μl of 30° C. lysis buffer (1 mM ATP, 50 mM PIPES, pH 6.9, 50 mM NaCl, 5 mM MgCl2, 5 mM EGTA, 5% (vol/vol) glycerol, 0.1% (vol/vol) Nonidet P-40, Tween 20, and Triton X-100, containing complete protease inhibitor cocktail). Cells were homogenized by gently pipetting up and down ten times and incubated at 30° C. for 10 minutes. Samples were centrifuged at 100,000×g for 60 minutes at 30° C. and the supernatants were removed for determination of G actin content. Pellets containing F-actin were resuspended in 200 μl of 4° C. distilled water with 1 μM cytochalasin D and left on ice for 60 minutes. Then, 20 μl of each extraction was removed, 6 μl 3× Laemmli stop solution was added and the samples were heated to 65° C. for 10 minutes. Samples were resolved by 12.5% SDS-PAGE and immediately transferred to PVDF membranes. […]

Hsp25 and Hsp72 = experiment: Immunoblot of Hsp25 and Hsp72 expression in YAMC cells; assay type: cell-based, mouse
Description: Twenty micrograms of protein per lane were resolved on 12.5% SDS-PAGE and transferred in 1× Towbin buffer (composition 25 mM Tris, 192 mM glycine, pH 8.8, 15% vol/vol methanol) onto PVDF membranes (Polyscreen, Perkin-Elmer NEN, Boston, Mass.) as previously described (Kojima, 2003), incorporated herein by reference. Membranes were blocked in 5% (wt/vol) non-fat milk in TBS-Tween (Tris-buffered saline (150 mM NaCl, 5 mM KCl, 10 mM Tris, pH 7.4) with 0.05% (vol/vol) Tween 20) for one hour at room temperature. For anti-ubiquitin blots, membranes were blocked in 3% bovine serum albumin (Fisher, Pittsburgh, Pa.). Primary antibody was added to TBS-Tween and incubated overnight at 4° C. with a specific anti-Hsp 25 antibody (SPA 801, Stressgen, Victoria, BC, Canada), anti-Hsp 72 antibody (SPA 810, Stressgen), anti-Hsc 73 antibody (SPA 815, Stressgen), anti-IκB-α antibody (sc-1643, Santa Cruz Biotechnology, Santa Cruz, Calif.), anti-phospho IκB-α antibody (sc-8404, Santa Cruz), or anti-ubiquitin antibody (PW 8810, Affiniti Research Products Ltd, Exeter, U.K.). Blots were then washed in TBS-Tween five times for 10 minutes each at room temperature before incubation with peroxidase-conjugated secondary antibodies (Jackson Immunoresearch Labs, Inc. Fort Washington, Pa.) for 1 hour at room temperature. […]

NF-κB = NF-κB ELISA assay (Active Motif), TNF-α stimulation; assay type: cell-based; conditions: TNF-α 30 ng/ml
Description: The proteasome inhibitors in VSL#3 may be small organic molecules. Some proteasome inhibitors found in nature are small molecular weight organic esters or organic acid derivatives, such as those in green tea. An ether extraction of the VSL#3-CM was undertaken to determine if bioactive factors could be concentrated to produce a more consistent and robust response. […] TNF-α stimulation (30 ng/ml) alone caused a significant increase in NF-κB activation (second bar from left).

[1] = molecular target: T1, 20S proteasomal component (barrel) (Homo sapiens, UniProt P28074); experiment: In vitro 20S proteasome assay (Calbiochem); assay type: biochemical; conditions: 20S component, slopes compared
T1 construct: purchased Calbiochem
Description: Proteasome activity from cell lysates was determined using a 20S Proteasome assay kit (Calbiochem, San Diego, Calif.). Briefly, ice-cold cell lysate containing 20 μg protein was added to proteasome assay reaction buffer (25 mm HEPES, 0.5 mM EDTA, pH 7.6) activated with 0.03% (wt/vol) SDS. The sample was allowed to come to room temperature, then placed in a quartz cuvette and 10 μM of the substrate suc-leu-leu-val-tyr-AMC (SLLVY-AMC), Bz-val-gly-arg-AMC, or Z-leu-leu-glu-AMC was added. The SLLVY-AMC substrate is cleaved by the chymotrypsin-like activity of the proteasome, the Bz-val-gly-arg-AMC substrate is cleaved by the trypsin-like activity of the proteasome, and the Z-leu-leu-glu-AMC substrate is cleaved by the PGPH, or caspase-like, activity of the proteasome. Proteasome activity was determined by measuring the fluorogenic signal generated by cleavage of AMC (7-amino-4-methylcoumarin) from the peptide moiety of the proteasome substrate. Fluorescence (excitation at 380 nm, emission at 460 nm) was measured every minute for the first 10 minutes, then every 15 minutes thereafter in a Hitachi F-2000 fluorometer (Hitachi, Japan). Cells were treated with either MG132 (25 μM) or lactacystin (10 μM) as a positive inhibitor control. Untreated cells were treated with DMSO as a vehicle control for MG132 and lactacystin. Experiments were performed in triplicate. […]

[2] = molecular target: T2, PGPH, or caspase-like, activity of the proteasome (Mus musculus, UniProt Q60692); experiment: Proteasome assay on YAMC cell lysates, substrate Z-leu-leu-glu-AMC; assay type: cell-based; conditions: VSL#3-CM 16 hours, about equivalent to 10 μM lactacystin; lactacystin 10 μM
T2 construct: endogenous in cells; host or cells: YAMC cell lysates
T2 sequence (Q60692 1-238): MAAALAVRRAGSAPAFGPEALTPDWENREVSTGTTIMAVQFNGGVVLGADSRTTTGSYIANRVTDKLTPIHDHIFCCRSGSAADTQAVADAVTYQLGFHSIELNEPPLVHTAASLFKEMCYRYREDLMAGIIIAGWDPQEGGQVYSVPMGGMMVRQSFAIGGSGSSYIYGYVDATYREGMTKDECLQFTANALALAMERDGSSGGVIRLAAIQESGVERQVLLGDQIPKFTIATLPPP

[3] = molecular target: T3, trypsin-like activity of the proteasome (Mus musculus, UniProt P70195); experiment: Proteasome assay on YAMC cell lysates, substrate Bz-val-gly-arg-AMC; assay type: cell-based; conditions: VSL#3-CM 16 hours; lactacystin 10 μM
T3 construct: endogenous in cells; host or cells: YAMC cell lysates
T3 sequence (P70195 44-277): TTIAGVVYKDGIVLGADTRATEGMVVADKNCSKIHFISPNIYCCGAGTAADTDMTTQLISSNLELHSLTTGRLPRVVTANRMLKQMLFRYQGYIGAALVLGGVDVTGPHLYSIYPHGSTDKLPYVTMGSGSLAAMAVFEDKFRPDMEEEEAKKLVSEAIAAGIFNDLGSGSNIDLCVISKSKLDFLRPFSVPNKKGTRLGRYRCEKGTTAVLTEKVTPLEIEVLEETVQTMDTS

In the case of `C[C@@H]1NC(=O)[C@H](C[C@@](C)(O)CO)NC(=O)[C@@H]2Cc3c([nH]c4ccccc34)SC[C@H](NC(=O)[C@@H]([C@H](C)O)NC1=O)C(=O)N1C[C@@H](O)C[C@H]1C(=O)N[C@@H](C)C(=O)N2` [phalloidin] (cyclo(A[dT]C[cisHyp]A[Trp(2-yl)][Leu(4R-OH,5-OH)]); thioether 3-6), the “effect on F- and G-actin, control agents” value (F/G actin) is reported as “increasing the amount of F-actin”.

`CC(C)C[C@@H](C=O)NC(=O)[C@H](CC(C)C)NC(=O)[C@H](CC(C)C)NC(=O)OCc1ccccc1` [MG132] (Cbz-Leu-Leu-Leu-aldehyde) was tested, and the “change in morphology and loss of cell viability” value (YAMC cells; 16 hours, MG132 at 25 μM, phase-contrast photographs) was “dramatic change in morphology and loss of cell viability”, the “cell viability compared to untreated control cells” value (YAMC cells; VSL#3-CM 24 hours of treatment, MG132 prolonged exposure) was “markedly increased cell death” and the “appearance of Hsp signal” value (Hsp25 and Hsp72; MG132 25 μM time course) was 7 to 14 h. The “induction of Hsp25 and Hsp72” value (Hsp25 and Hsp72; MG132 25 μM, more robust than thermal stress) was “very strong induction”, the “effect on TNF-α-stimulated NF-κB activity” value (NF-κB) was “significantly inhibited” and the “effect on in vitro proteasomal activity” value [1] was “significant inhibition”.

`C=C1[C@@H](C)[C@H]2[C@H](Cc3ccccc3)NC(=O)[C@]23[C@H](OC(C)=O)/C=C/[C@@](C)(O)C(=O)[C@@H](C)C/C=C/[C@H]3[C@@H]1O` [cytochalasin D] was tested, and the “effect on F- and G-actin, control agents” value (F/G actin) was “greatly increases the amount of globular (G) actin”.

For `CC(=O)N[C@@H](CSC(=O)[C@]1([C@@H](O)C(C)C)NC(=O)[C@H](C)[C@@H]1O)C(=O)O` [Lactacystin], the “effect on caspase-like activity of the proteasome” value [2] was “only a weak inhibitor”, the “cell toxicity limiting usable concentration” value (YAMC cells; concentrations higher than 10 μM) was “limited due to cell toxicity” and the “effect on trypsin-like activity of the proteasome” value [3] was “inhibits”.
